What was measured:
[1] = test system: right ventricular muscle strips and right or left ventricular papillary muscles; assay: Ventricular muscle model of SMA and STA; design: species or system rat; conditions: paced at 0.5 Hz, added to the superfusate in appropriate amounts
Text: To further establish this model as a general test for arrhythmic and anti-arrhythmic agents, right ventricular muscle strips and right or left ventricular papillary muscles were isolated from anesthetized rats as cardiac muscle exemplars using methods known to persons skilled in the art. Additional exemplars could include ventricular or atrial conduction system cells and the SAN itself. These muscles were then superfused as described above and paced at 0.5 Hz.

[2] = test system: rat left atrial appendage; assay: 2-APB-induced spontaneous mechanical activity (SMA/SMEs) in isolated superfused rat left atria / left atrial appendage; conditions: 3 Hz paced; data not shown
Protocol: Left atria were isolated from male Sprague-Dawley rats (325 to 400 g) under IP pentobarbital anesthesia (0.1 g/kg). Isolated left atria were superfused at 30° C. in Krebs-Henseleit (KH) buffer of the following mM composition: NaCl, 118; NaHCO3, 27; KCl, 4.8; MgSO4, 1.2; KH2PO4, 1.0; CaCl2, 1.8; and glucose, 11.1. Nearly isometric left atrial forces of contraction were measured as described.
Isolated superfused left atria were paced at 3 Hz. 2-APB was added to atrial superfusates from 0.015 or 0.15M DMSO stock solutions to achieve concentrations of 0, 2, 7.5, 15, or 22 μM (n=5 to 10 atria per concentration). Changes in atrial mechanical force were recorded during a subsequent 15 min superfusion.
Two groups of 5 to 6, 3 Hz paced atria were superfused in KH and exposed to 0 or 15 μM 2-APB for 10 min. The pacing stimulus was interrupted for 5 min and the number of spontaneous mechanical events (SMEs), defined as increases in mechanical force occurring in the absence of pacing, were measured as was the postrest potentiation response (PRP).
To determine whether diastolic interval affected the interaction between 2-APB and left atria, atrial pacing was decreased to 0.1 Hz, and 0, 7.5, or 22 μM 2-APB was added to the superfusate (n=6-8 per group). Superfusions continued for 15 min, and changes in atrial mechanical function were observed.
To establish whether SMA was reversible, atria (n=7) were paced at 0.1 Hz, exposed to 15 μM 2-APB for 10 min, and washed with KH. The effect of removing 2-APB on atrial mechanical function was recorded.
To test whether an anion transport inhibitor affected SMA, atria (n=7) were paced at 0.1 Hz in KH and exposed to 15 μM 2-APB. Following the appearance of SMA, they were titrated with 100 to 400 μM DIDS for 3 to 5 min at each concentration. Whether SMA occurred at the end of each titration period was recorded.
Left atria (n=10 per group) were paced at 0.1 Hz and treated with (i) 20 μM 2-APB for 10 min, (ii) with 30 nM isoproterenol for 5 min followed by 20 μM 2-APB for 10 min, and (iii) with 3 μM forskolin for 5 min followed by 20 μM 2-APB for 10 min.
The appendages then were titrated with increasing concentrations of 2-APB, and SMA was measured and recorded.
To determine the anti-arrhythmic activity of gossypol, isolated rat left atrial appendage and right ventricular muscle strips were used as model systems, as described above. Heart muscle was exposed to 20 μM 2-APB for 10 min to induce SMA, and rates of SMA were recorded as a percentage of initial SMA. The muscles then were titrated with up to 5 increasing concentrations of gossypol. Rates of SMA were recorded ˜10 min after the addition of concentration of the polyphenol.
To determine whether EGCG can prevent arrhythmia, rat left atrial appendages (n=9) were exposed to 20 μM 2-APB and rates of SMA were recorded. Groups of muscles (n=6 per) were pre-treated with 30 μM EGCG for 10 min following which they were exposed to 2-APB. Rates of SMA were recorded 10 min later.
To determine whether EGCG is effective to reverse arrhythmia, isolated rat left atrial appendage and right ventricular muscle strips were used as model systems, as described above. Rat left atrial appendages were exposed to 20 μM 2-APB for 10 min to induce SMA, and rates of SMA were recorded as a percentage of initial SMA. The left atrial appendages then were titrated with up to 5 increasing concentrations of the following polyphenols: EGCG, gossypol, resveratrol, and quercetin. Rates of SMA were recorded ˜10 min after the addition of concentration of the polyphenol.
To determine whether EGC can prevent arrhythmia, left atrial appendages (n=9) were exposed to 20 μM 2-APB and rates of SMA were recorded. Groups of appendages (n=6 per) were pre-treated with 30 μM EGC for 10 min following which they were exposed to 2-APB.

[3] = test system: rat left atrial appendage; assay: ATXII-induced triggered activity and transition to automaticity in left atrial appendage
Text: There are two types of afterdepolarizations; early afterdepolarizations (EADs) that occur early during repolarization and delayed afterdepolarizations (DADs) that occur in fully repolarized, resting myocytes (FIG. 4). Both EADs and DADs are defined as “triggered” activities as they require a preceding normal action potential to occur (FIG. 3B). One model to elicit EADs is to expose heart muscle or myocytes to Anemonia sulcata Toxin II (ATX II). This 47 amino acid peptide specifically enhances late sodium current and prolongs the action potential duration (FIG. 3D; middle panel). This leads to calcium loading of heart muscle followed by EADs during phase 2 or phase 3 of the action potential (FIGS. 3D & 5). These EADs, if of sufficient magnitude, produce ectopic mechanical events (FIG. 3B; ‡).
In embodiments of the assay an agent to induce arrhythmia will be introduced in the muscle. The arrhythmic agent may be chemical or physical. If the agent is chemical, it can be any chemical agent known by those skilled in the art to induce arrhythmia. The chemical agent will be introduced at a concentration sufficient to induce arrhythmia. If a certain type of arrhythmia is the subject of the assay (for example, triggered activity, tachycardia or any other type of arrhythmia), then the agent should be present at a concentration sufficient to produce the certain type of arrhythmia. One acceptable agent is anemone toxin II (“ATX II,”), the toxin of Anemone sulcata. ATX II is a sodium channel regulator.
It was tested whether the altered voltage-independent calcium homeostasis which 2-APB provokes is sufficient to initiate frank automaticity from triggered activity.

With `c1ccc(B(OB(c2ccccc2)c2ccccc2)c2ccccc2)cc1` [diphenyl boronic anhydride] the “ventricular SMA” value [1] was “ventricular SMA was observed” and the “SMEs per min compared with 2-APB” value [2] was “gave similar results”.

With “ATXII: 47 amino acid peptide that enhances late sodium current and prolongs action potential duration” the “ATXII concentration provoking automatic activity” value [3] was > 50 nM, the “effect on action potential” value ([3]; 30 nM ATXII, paced at 1 Hz) was “prolongs action potential duration” and the “ATXII concentration inducing triggered activity / aftercontractions” value ([3]; paced left atrial appendages) was < 50 nM.

Reference: patent US20110144125A1, “Anti-Arrhythmia Agents, Methods of Their Use, Methods of Their Identification and Kits Therefore” (THE UAB RESEARCH FOUNDATION, priority 2008, published 2011)
